Assay results from PubChem BioAssay (NCI).
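Values below derive from 48-hour exposures of cells grown in 96-well plates, with endpoints linearly interpolated between the two concentrations bracketing the appropriate inhibition level. GI50: concentration for 50% inhibition of growth. The concentration for full growth arrest is given as TGI.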

Experiments:
Test in all cases: NCI tumour cell line growth inhibition, 48 h
[1] = tested on: RPMI-8226 leukemia
[2] = tested on: HOP-92 NSCLC
[3] = tested on: OVCAR-5 ovarian
[4] = tested on: UACC-62 melanoma
[5] = tested on: CCRF-CEM leukemia
[6] = tested on: IGROV1 ovarian
[7] = tested on: TK-10 renal
[8] = tested on: CAKI-1 renal
[9] = tested on: MDA-MB-435
[10] = tested on: NCI-H226 lung
[11] = tested on: SN12C renal
[12] = tested on: OVCAR-4 ovarian
[13] = tested on: SK-MEL-2 melanoma
[14] = tested on: BT-549 breast
[15] = tested on: SF-295 CNS
[16] = tested on: SF-268 CNS
[17] = tested on: HL-60(TB) leukemia
[18] = tested on: K-562 leukemia
[19] = tested on: SK-OV-3 ovarian
[20] = tested on: RXF 393 renal
[21] = tested on: T-47D breast
[22] = tested on: HCT-15 colon
[23] = tested on: DU-145 prostate
[24] = tested on: M14 melanoma
[25] = tested on: SK-MEL-28 melanoma
[26] = tested on: A549 NSCLC
[27] = tested on: KM12 colon
[28] = tested on: HCT-116 colon
[29] = tested on: NCI-H522 lung
[30] = tested on: MALME-3M melanoma
[31] = tested on: EKVX NSCLC
[32] = tested on: HCC-2998 colon
[33] = tested on: NCI/ADR-RES ovarian
[34] = tested on: SW-620 colon
[35] = tested on: UO-31 renal
[36] = tested on: SK-MEL-5 melanoma
[37] = tested on: COLO 205 colon
[38] = tested on: U251 CNS
[39] = tested on: SNB-19 CNS
[40] = tested on: MOLT-4 leukemia
[41] = tested on: HOP-62 NSCLC
[42] = tested on: PC-3 prostate
[43] = tested on: NCI-H460 lung
[44] = tested on: ACHN renal
[45] = tested on: HT29 colon
[46] = tested on: UACC-257 melanoma
[47] = tested on: OVCAR-3 ovarian
[48] = tested on: SNB-75 CNS
[49] = tested on: OVCAR-8 ovarian
[50] = tested on: 786-0 renal
[51] = tested on: SF-539 CNS
[52] = tested on: MCF7 breast
[53] = tested on: A498 renal
[54] = tested on: MDA-MB-231 breast
[55] = tested on: HS 578T breast
[56] = tested on: LOX IMVI melanoma
[57] = tested on: SR leukemia

With O=C(CN1CCOCC1)NNc1ncnc2ccccc12 the GI50 [1] was 16.9 µM, the TGI [1] was 46.6 µM and the GI50 [2] was 13.3 µM. The TGI [2] was 27.1 µM, the GI50 [3] was 12.9 µM and the TGI [3] was 25.9 µM. For the same compound, the GI50 [4] was 13.7 µM, the TGI [4] was 27.2 µM and the GI50 [5] was 3.34 µM. For the same compound, the TGI [5] was 71 µM, the GI50 [6] was 17 µM and the TGI [6] was 36.3 µM. The GI50 [7] was 21.5 µM, the TGI [7] was 36.3 µM and the GI50 [8] was 2760 nM. The GI50 [9] was 13.7 µM, the TGI [9] was 27 µM and the GI50 [10] was 15.8 µM. The TGI [10] was 39.7 µM, the GI50 [11] was 14.9 µM and the TGI [11] was 28.6 µM. For the same compound, the GI50 [12] was 1830 nM, the TGI [12] was 3.85 µM and the GI50 [13] was 15.6 µM. It also gave a TGI [13] of 30.5 µM, a GI50 [14] of 13.8 µM and a TGI [14] of 28 µM. The GI50 [15] was 19.5 µM, the TGI [15] was 34.4 µM and the GI50 [16] was 3.95 µM. It also gave a TGI [16] of 18.5 µM, a GI50 [17] of 5.17 µM and a TGI [17] of 26.2 µM. For the same compound, the GI50 [18] was 3.18 µM, the TGI [18] was 12.9 µM and the GI50 [19] was 16.3 µM. It also gave a TGI [19] of 30.1 µM, a GI50 [20] of 2290 nM and a TGI [20] of 6.12 µM. It also gave a GI50 [21] of 4.1 µM, a TGI [21] of 19.7 µM and a GI50 [22] of 11.9 µM. The TGI [22] was 26.4 µM, the GI50 [23] was 17.4 µM and the TGI [23] was 32.3 µM. It also gave a GI50 [24] of 10.1 µM, a TGI [24] of 25.2 µM and a GI50 [25] of 12.2 µM. It also gave a TGI [25] of 24.5 µM, a GI50 [26] of 17.4 µM and a TGI [26] of 34.7 µM. It also gave a GI50 [27] of 18.7 µM, a TGI [27] of 41.4 µM and a GI50 [28] of 3.14 µM. The TGI [28] was 12.3 µM, the GI50 [29] was 1410 nM and the TGI [29] was 2920 nM. For the same compound, the GI50 [30] was 1740 nM, the TGI [30] was 3.52 µM and the GI50 [31] was 14.2 µM. For the same compound, the TGI [31] was 28 µM, the GI50 [32] was 16.9 µM and the TGI [32] was 31.4 µM. The GI50 [33] was 20.6 µM, the TGI [33] was 50.2 µM and the GI50 [34] was 2480 nM. For the same compound, the TGI [34] was 6.47 µM, the GI50 [35] was 13.3 µM and the TGI [35] was 26.1 µM. For the same compound, the GI50 [36] was 18 µM, the TGI [36] was 33.3 µM and the GI50 [37] was 2420 nM. For the same compound, the TGI [37] was 5.37 µM, the GI50 [38] was 13.9 µM and the TGI [38] was 27.5 µM. The GI50 [39] was 16.2 µM, the TGI [39] was 30.7 µM and the GI50 [40] was 15.6 µM. For the same compound, the TGI [40] was 56.9 µM, the GI50 [41] was 17.9 µM and the TGI [41] was 32.9 µM. The GI50 [42] was 14.7 µM, the TGI [42] was 30.4 µM and the GI50 [43] was 19.1 µM. For the same compound, the TGI [43] was 38.9 µM, the GI50 [44] was 1820 nM and the TGI [44] was 3.21 µM. For the same compound, the GI50 [45] was 15.6 µM, the TGI [45] was 33.7 µM and the GI50 [46] was 14.1 µM. The TGI [46] was 28 µM, the GI50 [47] was 3.78 µM and the TGI [47] was 14.1 µM. The GI50 [48] was 16 µM, the TGI [48] was 30 µM and the GI50 [49] was 17.1 µM. The TGI [49] was 33.1 µM, the GI50 [50] was 2230 nM and the TGI [50] was 5.17 µM. The GI50 [51] was 13.2 µM, the TGI [51] was 26 µM and the GI50 [52] was 4.33 µM. For the same compound, the TGI [52] was 21.9 µM, the GI50 [53] was greater than 100 µM and the TGI [53] was greater than 100 µM. For the same compound, the GI50 [54] was 14.4 µM, the TGI [54] was 29.6 µM and the GI50 [55] was 20.6 µM. For the same compound, the TGI [55] was 64.6 µM, the GI50 [56] was 1310 nM and the TGI [56] was 11.2 µM. The GI50 [57] was 15.7 µM and the TGI [57] was 54.7 µM.
